Patent publication US10654835B2, “Compounds and methods for inhibiting JAK” (Dizal (Jiangsu) Pharmaceutical Co., Ltd., priority 2015, dated 2020)
Entries after “also recorded” stand apart in the source; their conditions may differ.

Experiments:
PC-9 tumor xenografts = assay: PC-9 xenograft model, antitumor activity (Example 70); type: in vivo, mice
Procedure: (§1) Tumor volume was measured twice a week.

pSTAT3 (Y705) [1] = assay: pSTAT3 knockdown in NCI-H1975 tumors (Example 69); type: in vivo, mice; details: Example 32 12.5, 25, 50 mg/kg BID, after one day of treatment
Procedure: as §1
(§2) Materials and Methods: NCI-H1975 cells (a human NSCLC cell line with L858R and T790M mutations in the EGFR gene) tumor cells were implanted subcutaneously in female NCr nude mice (Taconic Laboratories), 3×10^6 cells/mouse. […] Drug levels in plasma were measured by LC/MS, using a Linear Ion Trap Quadrupole LC/MS/MS Mass Spectrometer (QTRAP 5500 model 1024945-BB, AB Sciex Instruments), with separation on a Waters Xbridge C18 column.

[2] = test system: NCI-H1975 tumor xenografts; assay: H1975 xenograft model, intermittent Example 32 dosing schedules, antitumor activity (Example 73); type: in vivo, mice
Procedure: as §1
Materials and Methods: NCI-H1975 cells (a human NSCLC cell line with L858R and T790M mutations in the EGFR gene), were implanted subcutaneously in female NCr nude mice (Taconic Laboratories), 3×10^6 cells/mouse.

[3] = test system: NCI-H1650 tumor xenografts; assay: H1650 xenograft model, antitumor activity (Example 71); type: in vivo, mice
Procedure: as §1
(§3) Twenty-three days after cell implantation, the mice were randomized into 6 groups (9 mice/group, average tumor volume 257 mm^3, range 205-303 mm^3). […] Drug levels in plasma were measured by LC/MS, using a Linear Ion Trap Quadrupole LC/MS/MS Mass Spectrometer (QTRAP 5500 model 1024945-BB, AB Sciex Instruments), with separation on a Waters Xbridge C18 column.

pSTAT3 (Y705) [4] = assay: pSTAT3 knockdown in PC-9 tumors (Example 70); type: in vivo, mice; details: gefitinib + Example 32 12.5 and 50 mg/kg BID; 2, 8 and 24 hours after the AM dose, last day
Procedure: as §1

[5] = Drug levels in plasma, H1975 xenograft mice (Example 69); type: in vivo; details: increasing dose of Example 32, one day of treatment
Procedure: as §2

[6] = test system: LG1049 non-small cell lung cancer PDX tumor xenografts; assay: LG1049 xenograft PDX model, antitumor activity (Example 72); type: in vivo, mice; details: for tumor regrowth when treatment was stopped after 28 days: osimertinib single agent or osimertinib + Example 32
Procedure: Summary: LG1049 non-small cell lung cancer PDX tumor xenografts were grown subcutaneously in female NSG mice. […] Tumor volume was measured twice a week.

pSTAT3 = pSTAT3 knockdown in NCI-H1650 tumors (Example 71); type: in vivo, mice; details: Example 32 as single agent and in combination with gefitinib, after one day of treatment
Procedure: as §1, §3

pSTAT3 (Y705) [7] = assay: pSTAT3 knockdown in LG1049 tumors (Example 72); type: in vivo, mice; details: Example 32 25 mg/kg BID, 5 days of treatment, 4H after the final dose
Procedure: as §1

[8] = test system: NCI-H1975 tumor xenografts; assay: H1975 xenograft model, antitumor activity (Example 69); type: in vivo, mice
Procedure: as §1
Materials and Methods: NCI-H1975 cells (a human NSCLC cell line with L858R and T790M mutations in the EGFR gene) tumor cells were implanted subcutaneously in female NCr nude mice (Taconic Laboratories), 3×10^6 cells/mouse.

[9] = LG1049 xenograft PDX model, body weight (Example 72); type: in vivo, mice
From the text: Materials and Methods: LG1049 tumor fragments were implanted subcutaneously in female NSG mice (JAX Stock No. 005557). Once tumor volumes reached ˜125-275 mm^3, mice were randomized into 5 groups (10 mice/group, average tumor volume 189 mm^3, range 138-253 mm^3).

pEGFR = pEGFR knockdown in LG1049 tumors (Example 72); type: in vivo, mice; details: osimertinib 25 mg/kg QD, 5 days of treatment, 4H after the final dose

With `COc1nn(C)cc1Nc1nccc(-c2c[nH]c3c(NC(=O)[C@@H](C)N4CCN(C)CC4)cccc23)n1` [Example 32, (2R)-N-(3-{2-[(3-methoxy-1-methyl-1H-pyrazol-4-yl)amino]pyrimidin-4-yl}-1H-indol-7-yl)-2-(4-methylpiperazin-1-yl)propanamide] as the molecule, how does the “antitumor activity of combination with gefitinib compared to gefitinib” value (PC-9 tumor xenografts; gefitinib 6.25 mg/kg QD + Example 32, oral, 21 days) read?
The value was “enhanced the antitumor activity of gefitinib”.

And the “activity of combination compared to single agent gefitinib” value (PC-9 tumor xenografts; gefitinib + 12.5 mg/kg Example 32 daily, and + 50 mg/kg Example 32 2 days on/5 days off)?
Its value is “greater activity than single agent gefitinib, but did not quite achieve statistical significance”.

And the “dose dependence of the enhancement of antitumor activity” value (shortened to “dose dependence”) (PC-9 tumor xenografts; gefitinib + Example 32 from 12.5 mg/kg to 50 mg/kg)?
The value was “increased with increasing dose of Example 32”.

What about the “pSTAT3 knockdown in tumors” value (pSTAT3 (Y705) [1]) of the same molecule?
Its value is “dose dependent increase in pSTAT3 knockdown”.

And the “antitumor activity, single agent, relative to vehicle” value ([2]; Example 32 50 mg/kg BID oral, 19 days)?
The value was “no significant activity relative to vehicle control treatment”.

And the “dose dependence” value ([2]; Example 32 50 mg/kg BID vs. 25 mg/kg BID with osimertinib)?
Its value is “greater at the higher dose of Example 32”.

What about the “statistical significance of the difference, combination vs. osimertinib alone” value ([2]; after 26 days of treatment) of the same molecule?
The value was “statistically significant after 26 days of treatment at all schedules of Example 32, with the exception of the groups in which Example 32 was dosed only for the first 7 days”.

And the “enhancement of osimertinib activity by schedule intensity of Example 32 (rank order)” value ([2]; osimertinib 2.5 mg/kg QD + Example 32)?
Its value is “daily>4 on/3 off>7 on/7 off>2 on/5 off>just first 7 days”.

And the “antitumor activity of combination with osimertinib compared to osimertinib alone” value ([2]; osimertinib 2.5 mg/kg QD + Example 32, continuous and intermittent schedules)?
Its value is “enhanced the antitumor activity of osimertinib”.

And the “antitumor activity, single agent” value ([3]; Example 32 25 or 50 mg/kg BID oral, 21 days)?
The value was “only modest antitumor activity”.

What about the “antitumor activity of combination with gefitinib compared to single agent gefitinib” value ([3]; gefitinib 6.25 mg/kg QD + Example 32 25 or 50 mg/kg BID, 21 days) of the same molecule?
The value was “enhanced the antitumor activity of gefitinib”.

What about the “dose dependence” value ([3]; gefitinib + Example 32 from 25 mg/kg to 50 mg/kg) of the same molecule?
The value was “increased with increasing dose of Example 32”.

What about the “pSTAT3 knockdown in tumors” value (pSTAT3 (Y705) [4]) of the same molecule?
Its value is “dose dependent increase in the duration of pSTAT3 knockdown”.

And the “level of Example 32 in plasma” value [5]?
Its value is “increasing level of Example 32 in plasma”.

What about the “tumor regrowth when Example 32 treatment was continued after 28 days of combination” value ([6]; Example 32 25 mg/kg BID alone 3 days on/4 days off/wk after the combination) of the same molecule?
The value was “tumors also regrew, but more slowly”.

What about the “antitumor activity, single agent Example 32, relative to vehicle” value ([6]; Example 32 25 mg/kg BID oral, 18 days) of the same molecule?
Its value is “no significant antitumor activity; also recorded: no significant activity relative to vehicle control treatment”.

And the “tumor regression, combination with osimertinib compared to osimertinib alone” value ([6]; osimertinib 25 mg/kg QD + Example 32 25 mg/kg BID (7 days, then 3 days on/4 days off/wk), 28 days)?
The value was “enhanced the tumor regression induced by osimertinib”.

And the “tumor regrowth when treatment was stopped after 28 days” value [6]?
Its value is “tumors rapidly regrew”.

And the “pSTAT3 knockdown in tumors” value (pSTAT3)?
The value was “Knockdown of pSTAT3 was observed”.

What about the “knockdown of pSTAT3 in tumors” value (pSTAT3 (Y705) [7]) of the same molecule?
Its value is “robust knockdown”.

What about the “antitumor activity, single agent, relative to vehicle” value ([8]; Example 32 12.5, 25 or 50 mg/kg BID oral, 18 days) of the same molecule?
Its value is “no significant antitumor activity; also recorded: only weak antitumor activity”.

And the “dose dependence” value ([8]; osimertinib 2.5 mg/kg QD + Example 32 12.5 mg/kg up to 50 mg/kg)?
The value was “increased with increasing dose of Example 32”.

What about the “antitumor activity of combination with osimertinib compared to osimertinib alone” value ([8]; osimertinib 2.5 mg/kg QD + Example 32 12.5, 25 or 50 mg/kg BID oral, 18 days) of the same molecule?
Its value is “enhanced the antitumor activity of osimertinib”.

What about the “weight loss, single agent” value ([9]; mouse, in vivo) of the same molecule?
Its value is “significant weight loss”.

Which “antitumor activity, single agent osimertinib” value ([6]; osimertinib 25 mg/kg QD oral, 28 days) does the source give for `C=CC(=O)Nc1cc(Nc2nccc(-c3cn(C)c4ccccc34)n2)c(OC)cc1N(C)CCN(C)C` [osimertinib, reference compound] here?
The value was “tumor regression”.

And the “tumor regrowth when treatment was stopped after 28 days” value [6]?
The value was “tumors rapidly regrew”.

What about the “weight loss, single agent” value ([9]; LG1049 tumor bearing NSG mice, weight loss ascribed to tumor growth) of the same molecule?
The value was “lack of significant weight loss”.

And the “knockdown of pEGFR in tumors” value (pEGFR)?
Its value is “robust knockdown”.
